# Data published in patent publication US10016382B2, “Method for decreasing skeletal muscle damage and/or oxidative stress in mammals” (LONZA INC., priority 2014, dated 2018).
# “And” between values parts separate entries of the source, which are not always exact repeats. Equal entries are not always repeated.
# What was measured:
# Type in all cases: in vivo, dog
# Labrador Retrievers [1] = assay: Time of final 15 mile run, Example 2 part one (14 week crossover study); conditions: Ex.2 part one, 250 mg/d, 15 mile run at end of 14 week study, mean ± SEM
# Procedure: Part One: For part one of the study, fifty-six Labrador Retrievers were divided into two equal groups of 28 (14 males, 14 females) based on gender, BW, genetics, age, excitement level, frame size, and lean body mass. The dogs were out of a minimum of 10 different bitches and at least as many sires. Prior to the start of the study, the dogs were tested for lean mass, muscle damage, and antioxidant status as described in Example 1. In addition to the low carnitine basal diet, twenty-eight of the Labs received 250 mg/day of L-carnitine (batch D23013) and 3.75 g/d of sugar, while twenty-eight of the Labs received 4 g/d of sugar. Both the L-carnitine and control performance dogs were put through a weekly running program consisting of two evenly distributed endurance runs. Groups ranging between 6 and 10 dogs were run together, including both treatments in each group. The endurance runs increased incrementally by 0.5 miles per week (5 miles/session increasing to 10 miles per session over an 11 week period). The dogs were allowed a 1 day rest between runs and a 3 day rest before a scheduled exercise distance increase. The dogs were put through maintenance runs of 5 miles twice in the 12th week and then 2 miles twice in the 13th week. All dogs had at least 4 days of rest prior to the final 15 miles run in the 14th week. Each performance dog wore the Actical activity monitor and GPS tracking collar during the last 15 mile endurance run. The final run was conducted in a manner analogous to that of Example 1. All activity was accurately and precisely calculated using the GPS tracking monitors. Immediately following the 15 mile endurance run, each dog was placed in a kennel and evaluated for recovery time in body temperature (every 15 minutes for 2 hours) and heart rate (every 2 minutes for up to 20 minutes until basal beats per minute (BPM) was reached). Body temperature and heart rate were measured as described in Example 1.
# skeletal protein = assay: Fractional synthesis rate (FSR) of skeletal protein, 15N Phe infusion, Example 2 part two
# Procedure: At the end of the 60 day training program, 24 of the dogs (12 resting and 12 running) were infused with a bolus dose of 15N Phe. […] Forty-five minutes after infusion, a 5 mm Bergstrom muscle biopsy needle was used to take a biopsy of the biceps femoris muscle. The muscle samples were quickly frozen in liquid nitrogen and placed in a -80° C. freezer for later analysis]. Twenty-four hours after the resting dogs were infused with 15N Phe, the remaining 12 dogs (6 non-carnitine; 3 male and 3 female and 6 L-carnitine; 3 male and 3 female) were run for a 15 mile endurance run. Following a 30 minute period of measured physiological recovery (heart rate and body temperature), test dogs that completed the 15 mile run were infused with a 2% 15N Phe solution as described above; muscle biopsies were taken 45 minutes after infusion. To process the samples, the acid-soluble fraction containing free amino acids was removed by addition of 2% (w/v) perchloric acid. After homogenization, samples were centrifuged at 3,000×g, and the supernatant, containing free amino acids, was removed. The protein precipitate was washed three times with 2% perchloric acid before being hydrolyzed in 6N HCL. The supernatant and precipitate, respectively, were then run through an ion-exchange column packed with Dowex 50WX8-200. Phenylalanine and 3-methylhistidine (3-MH) were eluted with 2 mL of 4N NH4OH and 1 mL of nanopure H2O into a new vial and then dried under vacuum. The tert-butyldimethylsilyl (tBDMS) derivative was formed by adding 800 μL of C2CH3CN-MTBSTFA (1:1) and incubating at 110° C. for 60 minutes. Analysis of the protein precipitate of muscle samples and free amino acids were carried out on an Agilent 7890A GC system attached to an Agilent 6975C mass spectrometer. Helium was used as the carrier gas at 1 mL/min. A 1 μL volume was injected into the GC/MS in splitless mode. Oven temperature began at 150° C. and increased by 50° C./min until reaching 200° C., after which the temperature was increased by 20° C./min until reaching 270° C. The temperature was held at 270° C. for 5.5 minutes. The mass spectrometer was operated under EI and SIM modes. The 394 and 395 m/z fragments, which represented the M and M+1 fragments of phenylalanine, were monitored.
# Labrador Retrievers [2] = assay: Heart rate and body temperature recovery following 15 mile run, Example 2 part one; conditions: for Temperature After Run: in °F (unit assumed)
# Procedure: Each performance dog wore the Actical activity monitor and GPS tracking collar during the last 15 mile endurance run. The final run was conducted in a manner analogous to that of Example 1. All activity was accurately and precisely calculated using the GPS tracking monitors. Immediately following the 15 mile endurance run, each dog was placed in a kennel and evaluated for recovery time in body temperature (every 15 minutes for 2 hours) and heart rate (every 2 minutes for up to 20 minutes until basal beats per minute (BPM) was reached). Body temperature and heart rate were measured as described in Example 1.
smiles,measurement,setting,value
C[N+](C)(C)C[C@H](O)CC(=O)[O-] [L-carnitine],Final Run Time,Labrador Retrievers [1]; Female,73.7 ± 0.86 min
same,Final Run Time,Labrador Retrievers [1]; Male,76.11 ± 1.64 min
same,Final Run Time,Labrador Retrievers [1]; both sexes,74.90 min and 74.9 ± 0.94 min
same,% FSR of skeletal protein vs control,"skeletal protein; Ex.2 part two, 250 mg/d, male or female dogs",did not increase
same,FSR,"skeletal protein; Female, no run",5.04%
same,FSR,"skeletal protein; Female, run",2.54%
same,FSR,"skeletal protein; Male, no run",3.61%
same,FSR,"skeletal protein; Male, run",4.63%
same,Heartrate after run,"Labrador Retrievers [2]; Ex.2 part one, 250 mg/d, 4 minutes post final run, both sexes",156.15 BPM
same,Heartrate after run,"Labrador Retrievers [2]; Ex.2 part one, 250 mg/d, 4 minutes post final run, males",160 BPM
same,Heartrate after run,"Labrador Retrievers [2]; Ex.2 part one, 250 mg/d, immediately following 15 mile run, both sexes",184.23 BPM
same,Return to basal temperature vs control (regression model),"Labrador Retrievers [2]; Ex.2 part one, 250 mg/d, males and females, FIGS. 5A, 5B",reached basal temperatures faster
same,Return to basal heart rate vs control (regression model),"Labrador Retrievers [2]; Ex.2 part one, 250 mg/d, overall group, males and females, FIGS. 4A, 4B",reached basal heart rate faster
same,Temperature After Run,"Labrador Retrievers [2]; Females, Temp - 0 min after 15 mile run",105.16 ± 0.35
same,Temperature After Run,"Labrador Retrievers [2]; Females, Temp - 15 min after 15 mile run",102.69 ± 0.24
same,Temperature After Run,"Labrador Retrievers [2]; Females, Temp - 30 min after 15 mile run",101.31 ± 0.2
same,Temperature After Run,"Labrador Retrievers [2]; Females, Temp - 45 min after 15 mile run",101.16 ± 0.2
same,Temperature After Run,"Labrador Retrievers [2]; Females, Temp - 60 min after 15 mile run",101.14 ± 0.2
same,Heartrate After Run,"Labrador Retrievers [2]; Females, Time - 0 min after 15 mile run",180.83 ± 3.36 BPM
same,Heartrate After Run,"Labrador Retrievers [2]; Females, Time - 2 min after 15 mile run",165 ± 6.09 BPM
same,Heartrate After Run,"Labrador Retrievers [2]; Females, Time - 4 min after 15 mile run",152.31 ± 6.71 BPM
same,Heartrate After Run,"Labrador Retrievers [2]; Females, Time - 6 min after 15 mile run",149.17 ± 6.21 BPM
same,Heartrate After Run,"Labrador Retrievers [2]; Females, Time - 8 min after 15 mile run",135 ± 6.34 BPM
same,Heartrate After Run,"Labrador Retrievers [2]; Females, Time - 10 min after 15 mile run",117.9 ± 7.45 BPM
same,Heartrate After Run,"Labrador Retrievers [2]; Females, Time - 12 min after 15 mile run",113.08 ± 8.5 BPM
same,Heartrate After Run,"Labrador Retrievers [2]; Females, Time - 14 min after 15 mile run",107.27 ± 8.95 BPM
same,Heartrate After Run,"Labrador Retrievers [2]; Females, Time - 16 min after 15 mile run",78.57 ± 5.73 BPM
same,Heartrate After Run,"Labrador Retrievers [2]; Females, Time - 18 min after 15 mile run",77.86 ± 5.47 BPM
same,Heartrate After Run,"Labrador Retrievers [2]; Females, Time - 20 min after 15 mile run",77.14 ± 5.29 BPM
same,Temperature After Run,"Labrador Retrievers [2]; Males, Temp - 0 min after 15 mile run",105.79 ± 0.36
same,Temperature After Run,"Labrador Retrievers [2]; Males, Temp - 15 min after 15 mile run",102.39 ± 0.4
same,Temperature After Run,"Labrador Retrievers [2]; Males, Temp - 30 min after 15 mile run",100.94 ± 0.23
same,Temperature After Run,"Labrador Retrievers [2]; Males, Temp - 45 min after 15 mile run",100.87 ± 0.19
same,Temperature After Run,"Labrador Retrievers [2]; Males, Temp - 60 min after 15 mile run",100.87 ± 0.19
same,Heartrate After Run,"Labrador Retrievers [2]; Males, Time - 0 min after 15 mile run",187.14 ± 3.54 BPM
same,Heartrate After Run,"Labrador Retrievers [2]; Males, Time - 2 min after 15 mile run",172.14 ± 3.81 BPM
same,Heartrate After Run,"Labrador Retrievers [2]; Males, Time - 4 min after 15 mile run",160 ± 4.94 BPM
same,Heartrate After Run,"Labrador Retrievers [2]; Males, Time - 6 min after 15 mile run",142.86 ± 5.59 BPM
same,Heartrate After Run,"Labrador Retrievers [2]; Males, Time - 8 min after 15 mile run",129.29 ± 5.29 BPM
same,Heartrate After Run,"Labrador Retrievers [2]; Males, Time - 10 min after 15 mile run",122.86 ± 3.7 BPM
same,Heartrate After Run,"Labrador Retrievers [2]; Males, Time - 12 min after 15 mile run",108.57 ± 3.76 BPM
same,Heartrate After Run,"Labrador Retrievers [2]; Males, Time - 14 min after 15 mile run",95 ± 3.1 BPM
same,Heartrate After Run,"Labrador Retrievers [2]; Males, Time - 16 min after 15 mile run",92.14 ± 3 BPM
same,Heartrate After Run,"Labrador Retrievers [2]; Males, Time - 18 min after 15 mile run",89.29 ± 2.21 BPM
same,Heartrate After Run,"Labrador Retrievers [2]; Males, Time - 20 min after 15 mile run",89.29 ± 2.21 BPM
same,Temperature After Run,"Labrador Retrievers [2]; Whole Groups, Temp - 0 min after 15 mile run",105.48 ± 0.25
same,Temperature After Run,"Labrador Retrievers [2]; Whole Groups, Temp - 15 min after 15 mile run",102.54 ± 0.23
same,Temperature After Run,"Labrador Retrievers [2]; Whole Groups, Temp - 30 min after 15 mile run",101.12 ± 0.15
same,Temperature After Run,"Labrador Retrievers [2]; Whole Groups, Temp - 45 min after 15 mile run",101.01 ± 0.14
same,Temperature After Run,"Labrador Retrievers [2]; Whole Groups, Temp - 60 min after 15 mile run",101.01 ± 0.14
same,Heartrate After Run,"Labrador Retrievers [2]; Whole Groups, Time - 0 min after 15 mile run",184.23 ± 2.49 BPM
same,Heartrate After Run,"Labrador Retrievers [2]; Whole Groups, Time - 2 min after 15 mile run",168.85 ± 3.48 BPM
same,Heartrate After Run,"Labrador Retrievers [2]; Whole Groups, Time - 4 min after 15 mile run",156.15 ± 4.15 BPM
same,Heartrate After Run,"Labrador Retrievers [2]; Whole Groups, Time - 6 min after 15 mile run",145.77 ± 4.12 BPM
same,Heartrate After Run,"Labrador Retrievers [2]; Whole Groups, Time - 8 min after 15 mile run",131.92 ± 4.04 BPM
same,Heartrate After Run,"Labrador Retrievers [2]; Whole Groups, Time - 10 min after 15 mile run",120.79 ± 3.72 BPM
same,Heartrate After Run,"Labrador Retrievers [2]; Whole Groups, Time - 12 min after 15 mile run",110.74 ± 4.46 BPM
same,Heartrate After Run,"Labrador Retrievers [2]; Whole Groups, Time - 14 min after 15 mile run",100.4 ± 4.38 BPM
same,Heartrate After Run,"Labrador Retrievers [2]; Whole Groups, Time - 16 min after 15 mile run",85.36 ± 3.43 BPM
same,Heartrate After Run,"Labrador Retrievers [2]; Whole Groups, Time - 18 min after 15 mile run",83.57 ± 3.1 BPM
same,Heartrate After Run,"Labrador Retrievers [2]; Whole Groups, Time - 20 min after 15 mile run",83.21 ± 3.05 BPM
